Laboratory results: patent publication US7582602B2, “Hirulog-like peptide and gene therapy” (priority 2000, dated 2009)
“Also recorded” adds a separate entry of the source.

How the values were obtained:
α-thrombin = target: T1, α-thrombin (Homo sapiens, UniProt P00734); assay: Inhibition of enzymatic activity of thrombin (spectrozyme substrate); assay type: biochemical; conditions: spectrozyme as substrate, relative to hirulog-1
T1 construct: using α-thrombin and spectrozyme (American Diagnostica Inc., Greenwich, Conn.) as a substrate for thrombin
Excerpt: HLP keeps the sequence of the active sites of hirulog-1. The amino-terminal tail of HLP contains a region which is homology to a distal portion of the extracellular domain of the thrombin receptor. This region of HLP is structurally distinct from hirulog-19-20 (or HLP20-31) which aims the anion binding exosite of thrombin (Carmeliet P et al, 1997). HLP provides double-site of inhibition on the binding of thrombin to the thrombin receptor, which can more effectively reduce the activation of the […] and the cellular effects of thrombin. In addition, the amino-terminal sequence of HLP can affect the interaction of the inhibitor with the active site of thrombin in a manner different from hirulog-1. This structural difference between HLP and hirulog-1 on their amino terminal can partially explain the lower inhibition of HLP on coagulation. The amino terminal of HLP can be slowly cleaved by thrombin after the formation of complex with thrombin as hirulog-1 (Buchanan M R et al, 1999), which prevents the complete consumption of thrombin.

[1] = Activated partial thromboplastin time (aPTT) in rats; assay type: in vivo; conditions: for aPTT (second): mean±SD, n=4
Method: Quantitative thrombin time (QTT) and activated partial thromboplastin time (aPTT): Plasma levels of hirulog-1 were estimated using QTT as previously described (Safian R D et al, 1990). Synthesized hirulog-1 (>90% of purity) was used as standard. The levels of aPTT in plasma were analyzed using a MLA 1000C Coagamate XM system in Haematology Laboratory, Health Sciences Centre, Winnipeg.
(§1) The levels of aPTT in plasma were analyzed using MLA 1000C Coagamate XM system in Haematology Laboratory, Health Sciences Centre, Winnipeg. For the evaluation of bleeding time, 1 mm of tail tip was removed using a razor blade. Resultant wound was gently blotted with filter paper immediately after the cut and each 30-second thereafter until bleeding stopped. Periods between cutting and no blood blotted onto filter paper were defined as bleeding time (Ishiwata S et al, 1997, 20).

[2] = Tail bleeding time in rats; assay type: in vivo; conditions: for tail bleeding time during treatment versus control or basal levels: i.v. infusion
Method: as §1

[3] = Haemorrhage, toxicity, liver and kidney function in rats; assay type: in vivo
aPTT in rabbits = assay type: in vivo; conditions: HLP treated rabbits
Method: (§2) Influence of HLP on coagulation and haemorrhage. The levels of aPTT and microvascular bleeding time is determined in atherosclerotic rabbits receiving HLP, heparin, hirulog-1 or saline. The effects of optimized HLP treatment on coagulation and haemorrhage is also be examined in a group of uninjured rabbits on regular diet (n=10). The levels of aPTT is determined in blood withdrawn at 15 minutes after the start of the infusions using MLA Coagamate XM system in Haematology Laboratory. Microvascular bleeding time is determined by bleeding from a cut on ear at 1 minutes after the initiation of infusion as previously described (Blajchman et al, 1979). Incidence of bleeding complications in rabbits with various treatments is recorded. Autopsy is applied to every animal, including unexpected death, to examine the sign of haemorrhage in various organs and tissues.
Restenosis is responsible for the 30-40% long term failure rate following coronary revascularization. Thrombin inhibitors have been considered as one type of potential drug for the prevention of restenosis. […] The experiment was designed to examine the effect of HLP on restenosis of carotid arteries in atherosclerostic rabbits. Right carotid arteries of male New Zealand rabbits were subjected to air dessication. […]

[4] = Bleeding complications and side effects in rabbits; assay type: in vivo; conditions: HLP 0.8 mg/kg/h for four hours
Method: as §2
Impact of HLP on liver, kidney and myeloid functions. Peripheral blood is withdrawn before sacrifice from ear vein of normal or atherosclerotic rabbits with and without treatments for analysing complete blood counts, serum albumin, alanine transaminase and blood urea nitrogen (analysed in Dept of Clinical Chemistry) to determine the influence of HLP on liver, kidney and myeloid functions. HLP concentrations in blood is analysed to examine the relationship between blood concentrations and possible toxic effects of HLP. […]

[5] = Induction of antibodies in rabbits; conditions: rabbit, in vivo
Method: Relationship between HLP concentrations and vascular response. The relationship between plasma concentrations and the anti-restenosis effect of HLP is analysed. Polyclonal antibodies against HLP-KLH conjugate were raised in rabbits by the applicants group. The antibodies specifically recognize HLP in plasma proteins using Western blotting analysis. A competitive immunoassay was developed to measure plasma levels of HLP. Relationship between the effect of HLP on restenosis and its blood concentrations is analysed, which helps evaluate the efficacy of HLP and the design of a proper regimen for HLP treatment to prevent restenosis.
Effect of HLP on immune reactions. Since HLP is a peptide, it potentially induces immune reactions. HLP is a weak antigen. […] The possibility of HLP induces immune reactions in rabbits has not been excluded. Blood is withdrawn four weeks or six months after angioplasty and treatment with HLP, its analogues or saline, and determine the levels of serum C-reactive protein (Clinical Chemistry). Antibodies against HLP in blood are detected by immunodiffusion. Allergic reaction to HLP is monitored during and after the treatment.

baboon aortic SMC = assay: Thrombin-induced 3H-thymidine incorporation assay; assay type: cell-based; conditions: thrombin 10 U/ml
Method: Baboon aortic SMCs (seed cells provided by Dr. A. W. Clowes, University of Washington, Seattle) were grown as previously described (Ishiwata S et al, 1999) and seeded in 12-well plates to sub-confluence. Sub-confluent cells were incubated with serum-free medium for 48 hours. Quiescent SMCs were stimulated with medium containing 1% fetal calf serum and 10 U/ml of thrombin in the absence and presence of HLP for 4 hours. The incubation was continued following the replacement of fresh medium supplemented with 10% serum in the absence of thrombin or its inhibitor for 14 hours. Finally, SMCs were incubated with 0.1 μCi/ml of 3H-thymidine (NEN, Boston, Mass.) in medium containing 10% of serum for 6 hours. At the end of the incubation, the cells were thoroughly washed with PBS then 5% ice-cold trichloroacetic acid, and harvested in 0.25 N NaOH (Safian R D et al, 1990). Radioactivity in aliquots of cell lysate was analyzed in scintillation counter. 3H-Thymidine incorporation was assessed by radioactivity in cell lysates following adjustment with cellular proteins in each well.

[6] = human, in vivo; cited from earlier work
[7] = system: hirulog-like peptide (HLP)
[8] = balloon injured rats, heparin 50 U/kg/h, hirulog-1 1 mg/kg/h, HLP 1.6 mg/kg/h [HLP(1.6)], 5 minutes after start of infusion
[9] = rats, 6 months after HLP treatment
[10] = tail, heparin 50 U/kg/h, hirulog-1 1 mg/kg/h, HLP 1.6 mg/kg/h [HLP(1.6)], 10 minutes after initiation of infusion, mean±SD, n=4
[11] = rats, 6 months after HLP 1.6 mg/kg/h for 4 hours

Sequence of hirulog-like peptide (HLP) (chain, as listed by the source): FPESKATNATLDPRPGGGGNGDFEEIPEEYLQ

Molecule: CC[C@H](C)[C@H](NC(=O)[C@H](CCC(=O)O)NC(=O)[C@H](CCC(=O)O)NC(=O)[C@H](Cc1ccccc1)NC(=O)[C@H](CC(=O)O)NC(=O)CNC(=O)[C@H](CC(N)=O)NC(=O)CNC(=O)CNC(=O)CNC(=O)CNC(=O)[C@@H]1CCCN1C(=O)[C@H](CCCNC(=N)N)NC(=O)[C@@H]1CCCN1C(=O)[C@H](CC(=O)O)NC(=O)[C@H](CC(C)C)NC(=O)[C@@H](NC(=O)[C@H](C)NC(=O)[C@H](CC(N)=O)NC(=O)[C@@H](NC(=O)[C@H](C)NC(=O)[C@H](CCCCN)NC(=O)[C@H](CO)NC(=O)[C@H](CCC(=O)O)NC(=O)[C@@H]1CCCN1C(=O)[C@@H](N)Cc1ccccc1)[C@@H](C)O)[C@@H](C)O)C(=O)N1CCC[C@H]1C(=O)N[C@@H](CCC(=O)O)C(=O)N[C@@H](CCC(=O)O)C(=O)N[C@@H](Cc1ccc(O)cc1)C(=O)N[C@@H](CC(C)C)C(=O)N[C@@H](CCC(N)=O)C(=O)O [HLP]
- Ki on the enzymatic activity of thrombin, compared with hirulog-1 (α-thrombin): two orders of magnitude greater; also recorded: two orders of magnitude higher
- aPTT (second) ([1]; HLP 3.2 mg/kg/h [HLP(3.2)], 5 minutes after start of infusion): 19.80 ± 1.65++xx second
- aPTT (second) [1, 8]: 20.80 ± 3.24++xx second
- aPTT / coagulation activity during treatment versus control or basal levels ([1]; rats, i.v. infusion): close to that infused with saline; also recorded: did not cause haemorrhage, the elongation of aPTT; also recorded: not significantly different from vehicle controls; also recorded: did not significantly differ; also recorded: did not prolong aPTT or bleeding time; also recorded: did not significantly alter coagulation activity
- tail bleeding time 6 months after treatment versus controls [2, 9]: No significant change; also recorded: No significant difference
- tail bleeding time during treatment versus control or basal levels ([2]; rats): did not cause haemorrhage, the elongation of aPTT or bleeding time; also recorded: not significantly different from vehicle controls; also recorded: did not prolong aPTT or bleeding time
- Bleeding time (min) ([2]; tail, HLP 3.2 mg/kg/h [HLP(3.2)], 10 minutes after initiation of infusion, mean±SD, n=4): 16.50 ± 1.58+x min
- Bleeding time (min) [2, 10]: 16.37 ± 1.55+x min
- toxic effect in rats ([3]; previous experiments): does not cause evident toxic effect
- alanine transaminase versus control group [3, 11]: No significant difference
- blood urea nitrogen versus control group [3, 11]: No significant difference
- liver and kidney functions [3, 9]: No significant change
- haemorrhage / death from haemorrhage during infusion ([3]; rats, heparin 50 U/kg/hours, HLP 1.6-3.2 mg/kg/hours): did not cause haemorrhage
- aPTT in rabbits versus saline controls (aPTT in rabbits): did not significantly change; also recorded: not significantly prolonged
- HLP treated rabbits that suffered from bleeding complications [4]: None
- antigenicity / induction of detectable antibodies in rabbits [5]: weak antigen

Molecule: CC[C@H](C)[C@H](NC(=O)[C@H](CCC(=O)O)NC(=O)[C@H](CCC(=O)O)NC(=O)[C@H](Cc1ccccc1)NC(=O)[C@H](CC(=O)O)NC(=O)CNC(=O)[C@H](CC(N)=O)NC(=O)CNC(=O)CNC(=O)CNC(=O)CNC(=O)[C@@H]1CCCN1C(=O)[C@H](CCCNC(=N)N)NC(=O)[C@@H]1CCCN1C(=O)[C@H](N)Cc1ccccc1)C(=O)N1CCC[C@H]1C(=O)N[C@@H](CCC(=O)O)C(=O)N[C@@H](CCC(=O)O)C(=O)N[C@@H](Cc1ccc(O)cc1)C(=O)N[C@@H](CC(C)C)C(=O)O [Hirulog-1, reference compound]
- aPTT raised over basal levels ([1]; 1 minute after injection of 1 mg/kg, uninjured and balloon injured rats): 3- to 4 fold
- aPTT (second) [1, 8]: 52.38 ± 2.84**+ second
- prolongation of aPTT during infusion ([1]; heparin 50 U/kg/h, hirulog-1 1 mg/kg/h, 5 minutes after start of infusion): 2- to 3 fold
- aPTT / coagulation activity during treatment versus control or basal levels ([1]; rats, i.v. infusion): significantly elongated
- time after treatment beyond which aPTT was normalized ([1]; single injection of 1 mg/kg): > 30 min
- aPTT versus basal levels ([1]; within 15 minutes after single injection of 1 mg/kg): higher than corresponding basal levels
- tail bleeding time during treatment versus control or basal levels ([2]; rats): significantly prolonged; also recorded: significantly elongated
- Bleeding time [2, 10]: 21.88 ± 1.55 min

Molecule: Heparin [reference compound]
- aPTT / coagulation activity during treatment versus control or basal levels ([1]; rat, in vivo, iv): greatly increased

Molecule: Thrombin
- increase of 3H-thymidine incorporation (baboon aortic SMC): 43%

Molecule: hirudin
- frequency of major bleeding [6]: 6%-7%
- incidence of major bleeding complications at non-cranial sites [6]: 7%

Molecule: α-thrombin
- thrombin-induced 3H-thymidine incorporation in baboon aortic SMC [7]: Treatment with 20 µM HLP significantly reduced thrombin-induced increase in 3H-thymidine incorporation in SMC (p<0.05) compared to cells treated with thrombin only
